Test results from patent publication US11911382B2, “Method for treating pulmonary arterial hypertension and associated pulmonary arterial hypertension” (Altavant Sciences GmbH, priority 2018, dated 2024).

What was measured:
[1] = system: PAH, monocrotaline prevention model; assay: monocrotaline prevention model of PAH; format: in vivo; details: rat, oral RVT-1201 100 mg/kg/day
[2] = system: established PAH, SUGEN-hypoxia treatment model; assay: SUGEN-hypoxia treatment model for established PAH; format: in vivo; details: rat, oral RVT-1201 100 mg/kg/day
serotonin biosynthesis = assay: serotonin biomarkers in rat (serum serotonin, urinary 5-HIAA); format: in vivo; details: 30 to 300 mg/kg/day, dose-dependent
Description: RVT-1201 (30 to 300 mg/kg/day) may yield a dose-dependent reduction in rat serum serotonin (−27% to −96%) and 24 h urinary output of 5-HIAA (−45% to −56%). HIAA is a metabolite that reflects total serotonin biosynthesis.

serotonin biomarkers = assay: divided dose studies in rats; format: in vivo, rat
[3] = safety and tolerability in healthy human subjects; format: in vivo; details: doses required to achieve clinically-relevant AUC
Description: (§1) Healthy human subjects (n=˜120) may receive RVT-1201.
(§2) Mean change in plasma 5-HIAA may be about −53% from Day 1 to Day 14, whereas placebo may be about +26%. Interpolation of KAR5417 AUC between 400 mg and 800 mg BID regimens may show 500-600 mg BID in humans will achieve the target exposure associated with efficacy in rat models.

[4] = pharmacokinetics in healthy human subjects; format: in vivo; details: humans, interpolation of KAR5417 AUC between 400 mg and 800 mg BID regimens
Description: as §1, §2

5-HIAA = assay: plasma 5-HIAA in healthy human subjects; format: in vivo; details: 400 mg BID, Day 1 to Day 14
Description: as §2

TPH1 = molecular target: T1, TPH1 (Mus musculus, UniProt P17532); details: amorphous form; cited from earlier work
T1 construct: from tissue; host or cells: live mice (in vivo)
T1 sequence (P17532 1-447): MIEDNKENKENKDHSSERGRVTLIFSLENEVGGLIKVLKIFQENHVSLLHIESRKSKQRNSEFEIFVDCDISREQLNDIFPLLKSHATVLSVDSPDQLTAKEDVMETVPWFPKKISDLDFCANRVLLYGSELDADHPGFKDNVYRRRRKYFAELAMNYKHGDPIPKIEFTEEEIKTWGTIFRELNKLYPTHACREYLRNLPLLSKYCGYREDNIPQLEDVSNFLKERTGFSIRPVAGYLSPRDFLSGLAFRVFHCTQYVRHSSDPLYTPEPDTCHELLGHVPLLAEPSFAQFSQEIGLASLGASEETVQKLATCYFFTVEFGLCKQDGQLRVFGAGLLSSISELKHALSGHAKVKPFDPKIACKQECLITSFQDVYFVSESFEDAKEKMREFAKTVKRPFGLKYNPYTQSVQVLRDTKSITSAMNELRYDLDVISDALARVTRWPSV

[5] = stability of crystalline polymorphs; format: physicochemical; details: particularly at temperatures of less than 95° C.
Description: The above-referenced compound can be used to prevent or treat PAH/APAH in either an amorphous or crystalline form. Two different polymorph crystalline forms are identified by x-ray powder diffraction patterns set forth in FIG. 1 (Form 3) and FIG. 2 (Form 1) as well as Tables 1 and 2 (Form 3) and Tables 3 and 4 (Form 1).

Row | SMILES | effect on PAH [1] | effect on PAH [2] | reduction in 24 h urinary output of 5-HIAA (serotonin biosynthesis) | reduction in rat serum serotonin (serotonin biosynthesis) | once daily administration versus BID or TID regimens (serotonin biomarkers) | serotonin reduction (serotonin biomarkers; 75 mg/kg/day, divided dose studies) [%] | tolerability [3] | BID dose achieving target exposure associated with efficacy in rat models [4] [mg] | mean change in plasma 5-HIAA (5-HIAA) | efficacy in inhibiting TPH1 in mice (TPH1) | stability and shelf life compared to crystalline Form 1 polymorph [5]
1 | CCOC(=O)[C@@H]1CC2(CCN(c3cc(O[C@H](c4ccc(Cl)cc4-c4ccccc4)C(F)(F)F)nc(N)n3)CC2)CN1 [RVT-1201, (S)-ethyl 8-(2-amino-6-((R)-1-(5-chloro-[1,1′-biphenyl]-2-yl)-2,2,2-trifluoroethoxy)pyrimidin-4-yl)-2,8-diazaspiro[4.5]decane-3-carboxylate] | block or ameliorate PAH | block or ameliorate PAH | −45% to −56% | −27% to −96% | comparable to BID or TID regimens | ~65 | well tolerated | 500 to 600 | about −53% | demonstrated | 
2 | CCOC(=O)[C@@H]1CC2(CCN(c3cc(O[C@H](c4ccc(Cl)cc4-c4ccccc4)C(F)(F)F)nc(N)n3)CC2)CN1 [crystalline Form 3, (S)-ethyl 8-(2-amino-6-((R)-1-(5-chloro-[1,1′-biphenyl]-2-yl)-2,2,2-trifluoroethoxy)pyrimidin-4-yl)-2,8-diazaspiro[4.5]decane-3-carboxylate] |  |  |  |  |  |  |  |  |  |  | substantially greater stability and shelf life
